The values below come from patent publication US20100311726A1, “REDUCTION OF BETA-AMYLOID LEVELS BY TREATMENT WITH THE SMALL MOLECULE DIFFERENTIATION-INDUCING FACTOR” (priority 2007, published 2010).

Non-standard residues stand in square brackets, D forms with d. Residues, ends and D or L forms follow the SMILES beside them. Nle = CCCC[C@H](N)C(=O)O

As usually defined, the IC50 is the concentration at which inhibition is half-maximal.

One assay deals with APP ubiquitin-conjugates. In words: APP ubiquitin-conjugates by immunoprecipitation and western blot. To be noted: CHO-CAB; DIF-1 30 μM, lactacystin 10 μM, ALLN 10 μM. (In general: In western blotting, separated proteins are transferred to a membrane and probed.)
In assay [1] the test system is APP. In words: APP processing (mature APP, αCTF, βCTF) by western blot. Type of assay: cell-based, human. The settings on record: for effect of proteasome inhibitor alone on APP CTF levels: CHO-CAB, 10 μM; for effect of kinase inhibitor alone on APP processing / CTF levels: CHO-7W or CHO-CAB, LiCl 1-10 mM; for effect of kinase inhibitor pretreatment on the effect of DIF-1 on APP processing: with 30 μM DIF-1.

In a further assay the test system is cyclin D1. In words: Cyclin D1 level by western blot. To be noted: for effect on cyclin D1 level (proteasome inhibitor alone): CHO-CAB, 10 μM.
Assay [2] concerns APP. In words: APP processing (mature APP, αCTF, βCTF) by western blot. Type of assay: cell-based, human. To be noted: CHO-7W, 250 nM. The protocol: Total protein was collected in RIPA buffer plus protease inhibitors on ice and briefly sonicated. They lysate was centrifuged at 14,000 rpm for 15 minutes. […] After washing, the blots were probed with a polyclonal HRP-tagged secondary Ab (1:5000) for 1 hour at room temperature then visualized.
A second possibility is that DIF-1 potentiates the activity of y-secretase and processing of αCTFs and βCTFs. To assess this latter possibility, we examined the effect of DIF-1 in the presence of DAPT, a potent γ-secretase inhibitor. Even numbers of CHO-7W cells were plated in 6-well dishes and allowed to grow overnight. The next day, the media was removed and replaced with control media (2 ml) or media containing DAPT, DIF-1 or DAPT and DIF-1. […] After washing, blots were probed with HRP-conjugated secondary antibodies (1:5000) for 1 hour at room temperature. […] It would appear that the mechanism of DIF-1 on APP metabolism is not likely to involve γ-secretase activity, but might impact on either BACE1 levels or activity.
To evaluate this probability, we treated CHO-CAB cells that overexpress human APP^751 and human BACE1 with 30 μM of DIF-1. More specifically, even numbers of CHO-CAB cells were plated in 6-well dishes and allowed to grow overnight. The next day, the media was removed and replaced with control media (2 ml) or media containing DAPT, DIF-1 or DAPT and DIF-1. […] After washing, blots were probed with HRP-conjugated secondary antibodies (1:5000) for 1 hour at room temperature. Each treatment is shown above the blot. […] It would appear that DIF-1 has a greater effect on APP maturation in CHO-CAB cells. Longer exposures reveal the presence of mature APP bands in DIF-1 treated cells.
Next dose-dependent effects of DIF-1 on APP processing were examined. Even numbers of CHO-CAB cells were plated in 6-well dishes and allowed to grow overnight. The next day, cells were treated overnight with either vehicle or increasing concentrations of DIF-1 (5-30 μM).

The test system of the next assay is human APLP1. The assay is described as follows: APLP1 metabolism by western blot in CHO-A1 cells. Type of assay: cell-based. To be noted: 30 μM DIF-1 or 250 nM DAPT, ~20 hours. The protocol:
CHO cells that stably express human APLP1, which is a closely related family member of the APPs and known γ-secretase substrate (Eggert et al., 2004), were treated with 30 μM DIF-1, DAPT or DIF-1 plus DAPT (FIG. 7). Equal numbers of CHO-A1 cells stably expressing human APLP1 cells were plated in 6-well dishes and allowed to grow overnight. The next day, the media was removed and replaced with control media (2 ml) or media containing DAPT, DIF-1 or DAPT and DIF-1. […] After washing, blots were probed with HRP-conjugated secondary antibodies (1:5000) for 1 hour at room temperature.

For assay [3], the system named is APP phosphorylation on residue T668. In words: APP T668 phosphorylation by western blot. The settings on record: CHO-7W and CHO-CAB; DAPT alone, or DAPT with DIF-1 (30 μM). Type of assay: cell-based, human. The protocol: Next, whether or not DIF-1 treatment affected the degree of T668 phosphorylation was examined by western blot (FIG. 11). Briefly, effects of DIF-1 on APP T668 phosphorylation were compared between vehicle-treated control and 250 nM of DAPT identically in each cell line. Western analysis of 15 μg of total protein was probed overnight at 4° C. with anti-APP Cterminal antibody (C66-676-695) (1:5000) and then detected on film using ECL and HRP-conjugated secondary antibodies (1:5000). […] This band has also been detected in other CHO lines where APP expression is high (˜3 fold) and by different C-terminal APP antibodies (Ab8717-676-695; except 6E10 which recognizes the N-terminal residues 1-17 of the Aβ sequence. For FIG. 11A, cells were treated with DAPT, and DAPT+DIF then were probed with anti-APP antibody (C66). For FIG. 11B, CHO-7W cells were treated with DAPT, and DAPT+DIF, and then probed with polyclonal anti-P668 APP antibody (1:1000) overnight at 4° C. in 5% BSA. After washing, cells were probed with a rabbit HRP-conjugated secondary antibody (1:5000) in BSA for 1 hour at room temperature and signals were detected on film using ECL. FIG. 11C represents CHO-CAB cells and FIG. 11D represents H4 cells expressing APP^SW.

For a further assay, the system named is Dictyostelium discoideum. The settings on record: cited from earlier work.
Assay [4] deals with human leukemia K562 cells. To be noted: Kubohara 1999; cited from earlier work.
A further assay concerns GSK. To be noted: cited from earlier work.

Experimental for APP ubiquitin-conjugates: For immunoprecipitations, 1 mg of total protein was diluted with extraction buffer and precleared with protein G-conjugated agarose beads (Pierce). The precleared samples were incubated overnight with anti-APP antibodies or nonimmune IgG (Jackson Laboratories). Immunocomplexes were captured with Protein G agarose beads, washed five times with extraction buffer and heated for 5 min at 95° C. in SDS gel-loading buffer.
CHO-CAB cell protein extracts (1 mg) were immunoprecipitated using APP antibodies. The immunoprecipitated complexes were analyzed by western blotting using anti-ubiquitin antibodies. […] Molecular Weight markers (kDa) are shown on the left. GAPDH levels are shown below each blot. The data represents that of three separate experiments.
To determine whether the proteasome-mediated degradation of APP is accompanied by increased levels of poly-ubiquitinated APP, we investigated the ubiquitination status of APP in extracts of CHO-CAB cells treated in the absence or presence of DIF-1 (30 μM), lactacystin (10 μM), ALLN (10 μM), DIF-1+lactacystin and DIF-1+ALLN.
Experimental for cyclin D1: Following treatment of each cell line with or without DIF-1 (1-30 μM) and/or other inhibitors, cells were lysed in cold RIPA buffer (20 mM Tris-HCl (pH 7.4) buffer containing 150 mM NaCl, 2 mM EDTA, 1% Nonidet® P-40 (NP-40), 50 mM NaF, 1 mM Na3VO4, 1 mM Na2MoO4, 10 mg/ml aprotinin, and 10 mg/ml leupeptin), supplemented with protease inhibitor tablets from Roche (Switzerland). Protein amounts were quantified in triplicate using the BCA assay from Pierce. Equal amounts of protein extracts were fractionated by sodium dodecyl sulfate polyacrylamide gel electrophoresis (SDS-PAGE) and transferred to polyvinylidene difluoride membranes. The membranes were blocked for 1 hour with 5% fat-free powdered milk or 5% BSA, incubated overnight at 4° C. with primary antibodies (1:1000 or 1:5000), washed with TTBS and then incubated at room temperature with appropriate peroxidase-conjugated secondary antibodies (1:5000). Blots were repeatedly washed with TTBS and target proteins were detected using an enhanced chemiluminescence (ECL) system (Amersham Pharmacia Biotech, New Jersey, USA) and XOMAT™ Kodak® film.
Densitometry analysis of western blot data was performed on a PC computer using QuantityOne® software obtained from Bio-Rad® Laboratories, Inc. (California, USA). Loading variations between western blot lanes were normalized according to the GAPDH signal prior to any experimental quantification. Each western blot presented in the figures is representative of at least five independent experiments to ensure reproducibility of the results unless noted otherwise.
CHO-CAB cells were treated with lithium chloride (10mM). […] To ensure that the results observed were due to proteasome inhibition, we assessed the effects of lactacystin and ALLN on cyclin D1 levels. […] The data represents that of three separate experiments.

Regarding `CCCC[C@@H](C=O)NC(=O)[C@H](CC(C)C)NC(=O)[C@H](CC(C)C)NC(C)=O` [ALLN, Acetyl-L-Leucyl-L-Leucyl-L-Norleucinal, reference compound] (Ac-Leu-Leu-[Nle]-aldehyde), the “level of APP ubiquitin-conjugates (single agent)” value with APP ubiquitin-conjugates is “increased the level of APP ubiquitin conjugates”. In addition, the “effect of proteasome inhibitor alone on APP CTF levels” value in the assay with APP [1] is “induced an increase in CTF levels”. Besides, the “effect on cyclin D1 level (proteasome inhibitor alone)” value with cyclin D1 is “increased the levels of cyclin D1”.

Regarding `C[C@H](NC(=O)Cc1cc(F)cc(F)c1)C(=O)N[C@H](C(=O)OC(C)(C)C)c1ccccc1` [DAPT, N4-[N-(3,5-difluorophenacetyl-1-alanyl)]-S-phenylglycine tert-butyl ester, reference compound], the “α- and βCTF levels with γ-secretase inhibitor alone” value in the assay on APP [2] was “increase in the levels of both α- and βCTFs”. The “effect on cyclin D1 level” value in the assay on cyclin D1 (CHO-7W, 30 μM DIF-1 or 250 nM DAPT) is on record as “no effect”. Moreover, the “APLP1 maturation, protein levels, CTF levels” value in the assay with human APLP1 is “significant increase in the levels of APLP1 CTF”. Moreover, the “amount of T668 phosphorylated APP CTFs” value in assay [3] is recorded as “greatly increased the amount of detectable phosphorylated APP at residue T668”.

As for `CCCCC(=O)c1c(O)c(Cl)c(OC)c(Cl)c1O` [DIF-2, 1-(3,5-dichloro-2,6-dihydroxy-4-methoxyphenyl)pentan-1-one], the “specific activity relative to DIF-1 (stalk-cell differentiation)” value in the assay with Dictyostelium discoideum (percent of the activity of DIF-1) was ~40%.

For `CCCCCC(=O)c1c(O)cc(OC)c(Cl)c1O` [DIF-3, 1-(3-chloro-2,6-dihydroxy-4-methoxyphenyl)hexan-1-one], the “anti-leukemic potency among DIF analogs” value in assay [4] is on record as “most potent anti-leukemic agent”. Besides, the “activity in inducing stalk-cell differentiation” value in the assay with Dictyostelium discoideum (in words) was “much less active”.

With `O=C1Cc2c([nH]c3ccc(Br)cc23)-c2ccccc2N1` [kenpaullone, 9-bromo-7,12-dihydro-indolo[3,2d][1]benzazepin-6(5H)-one], in the assay with APP [1], the “effect of kinase inhibitor alone on APP processing / CTF levels” value is “no effect on the level of APP CTFs” and the “effect of kinase inhibitor pretreatment on the effect of DIF-1 on APP processing” value is on record as “neither attenuated nor potentiated the effect of DIF-1 on APP processing”. Further, the IC50 in the assay on GSK was 23 nM.

For the compound `CC(=O)N[C@@H](CSC(=O)[C@]1([C@@H](O)C(C)C)NC(=O)[C@H](C)[C@@H]1O)C(=O)O` [lactacystin, 3S-hydroxy-2R-(1-hydroxy-2-methylpropyl)-4R-methyl-5-oxo-2 pyrrolidine-carboxylate-N-acetyl-L-cysteine, reference compound], the “level of APP ubiquitin-conjugates (single agent)” value in the assay with APP ubiquitin-conjugates is listed as “increased the level of APP ubiquitin conjugates”. Moreover, the “effect of proteasome inhibitor alone on APP CTF levels” value in the assay with APP [1] was “induced an increase in the level of αCTF and βCTF”. Moreover, the “effect on cyclin D1 level (proteasome inhibitor alone)” value with cyclin D1 is listed as “increased the levels of cyclin D1”.

For `CC[C@H](CO)Nc1nc(NCc2ccccc2)c2ncn(C(C)C)c2n1` [roscovitine, 2-(R)-[[9-(1-Methylethyl)-6-[(phenylmethyl)amino]-9H-purin-2-yl]amino]-1 butanol], in the assay on APP [1], the “effect of kinase inhibitor alone on APP processing / CTF levels” value was “no effect on APP metabolism” and the “effect of kinase inhibitor pretreatment on the effect of DIF-1 on APP processing” value is on record as “neither blocked nor potentiated the effect of DIF-1 on APP CTF production”.
